In US9796700B2 (Celgene CAR LLC, priority 2013, dated 2017):

Molecular target: Erk1 (Homo sapiens (Human), UniProt P27361)
Experiment: Protein Mass Modification Assay (intact protein MALDI)
Format: binding
Procedure: Protein Mass Modification Assay
Intact protein: Erk1 from Millipore (Cat. No. 14-439) was incubated for 60 min. at room temperature with a 10-fold excess of test compound to protein. 4 μL aliquots of the resulting mixture were diluted with 15 μL of 0.2% TFA prior to micro C4 ZipTipping directly onto the MALDI target using sinapinic acid as the desorption matrix (10 mg/ml in 0.1% TFA:Acetonitrile 50:50, v/v). The centroid mass of the target protein in the control sample was compared with the centroid mass of the target protein incubated with compound. A shift in the centroid mass of the treated protein compared to the untreated protein was divided by the molecular weight of the compound. This number corresponds to the percentage of modified protein after one hour incubation. Results from this assay are reported in Table A under the column “ERK1 Mass Mod (%).”

Sequence of Erk1 (P27361 whole entry, looked up): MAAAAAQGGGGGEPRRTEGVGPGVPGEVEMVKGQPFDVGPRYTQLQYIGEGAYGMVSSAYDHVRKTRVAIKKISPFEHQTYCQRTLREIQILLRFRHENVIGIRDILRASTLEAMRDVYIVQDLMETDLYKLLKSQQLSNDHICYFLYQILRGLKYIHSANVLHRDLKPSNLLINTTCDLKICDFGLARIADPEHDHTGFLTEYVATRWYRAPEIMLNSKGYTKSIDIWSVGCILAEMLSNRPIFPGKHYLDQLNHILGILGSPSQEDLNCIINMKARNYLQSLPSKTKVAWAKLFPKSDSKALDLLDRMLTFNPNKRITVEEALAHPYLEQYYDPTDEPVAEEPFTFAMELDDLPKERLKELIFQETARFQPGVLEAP

| ERK1 Mass Mod (%) | Structure (SMILES) |
| --- | --- |
| G (proived a mass modification ≦30%) | O=C(CCCl)Nc1ccccc1Nc1nc(N[C@H]2CCCN(C(=O)CO)C2)ncc1C(F)(F)F [Compound I-22, (S)-3-Chloro-N-(2-((2-((1-(2-hydroxyacetyl)piperidin-3-yl)amino)-5-(trifluoromethyl)pyrimidin-4-yl)amino)phenyl)propanamide] |
| G (proived a mass modification ≦30%) | CC(=O)N1CCC[C@H](Nc2ncc(C(F)(F)F)c(Nc3ccccc3NC(=O)CCl)n2)C1 [Compound I-30, (S)—N-(2-((2-((1-Acetylpiperidin-3-yl)amino)-5-(trifluoromethyl)pyrimidin-4-yl)amino)phenyl)-2-chloroacetamide] |
| G (proived a mass modification ≦30%) | O=C(CCl)Nc1ccccc1Nc1nc(N[C@H]2CCCN(C(=O)CCl)C2)ncc1C(F)(F)F [Compound I-31, (S)-2-Chloro-N-(2-((2-((1-(2-chloroacetyl)piperidin-3-yl)amino)-5-(trifluoromethyl)pyrimidin-4-yl)amino)phenyl)acetamide] |
| G (proived a mass modification ≦30%) | O=C(CCl)N[C@@H]1CCCC[C@H]1Nc1nc(N[C@H]2CCCN(C(=O)CO)C2)ncc1C(F)(F)F [Compound I-35, 2-Chloro-N-((1R,2R)-2-((2-(((S)-1-(2-hydroxyacetyl)piperidin-3-yl)amino)-5-(trifluoromethyl)pyrimidin-4-yl)amino)cyclohexyl)acetamide] |
| E (provided a mass modification of ≧70%) | C=CC(=O)Nc1ccc(C)cc1Nc1nc(NC2CCC(=O)CC2)ncc1C(F)(F)F [Compound I-39, N-(4-Methyl-2-((2-((4-oxocyclohexyl)amino)-5-(trifluoromethyl)pyrimidin-4-yl)amino)phenyl)acrylamide] |
| E (provided a mass modification of ≧70%) | C=CC(=O)Nc1ccccc1Nc1nc(N[C@H]2CCCN(C(=O)C(C)=O)C2)ncc1C(F)(F)F [Compound I-49, (S)—N-(2-((2-((1-(2-Oxopropanoyl)piperidin-3-yl)amino)-5-(trifluoromethyl)pyrimidin-4-yl)amino)phenyl)acrylamide] |
| E (provided a mass modification of ≧70%) | C=CC(=O)Nc1ccccc1Nc1nc(N[C@H]2CCCN(C(=O)[C@@H](O)CO)C2)ncc1C(F)(F)F [Compound I-50, N-(2-((2-(((S)-1-((S)-2,3-Dihydroxypropanoyl)piperidin-3-yl)amino)-5-(trifluoromethyl)pyrimidin-4-yl)amino)phenyl)acrylamide] |
| E (provided a mass modification of ≧70%) | C=CC(=O)Nc1ccccc1Nc1nc(N[C@H]2CCCN(C(=O)[C@H](O)CO)C2)ncc1C(F)(F)F [Compound I-51, N-(2-((2-(((S)-1-((R)-2,3-Dihydroxypropanoyl)piperidin-3-yl)amino)-5-(trifluoromethyl)pyrimidin-4-yl)amino)phenyl)acrylamide] |
| E (provided a mass modification of ≧70%) | C=CC(=O)Nc1ccccc1Nc1nc(N[C@H]2CCCN(C(=O)C=O)C2)ncc1C(F)(F)F [Compound I-52, (S)—N-(2-((2-((1-(2-Oxoacetyl)piperidin-3-yl)amino)-5-(trifluoromethyl)pyrimidin-4-yl)amino)phenyl)acrylamide] |
| E (provided a mass modification of ≧70%) | C=CC(=O)Nc1ccccc1Nc1nc(N[C@H]2CCN(S(C)(=O)=O)C2)ncc1C(F)(F)F [Compound I-58, (S)—N-(2-((2-((1-(Methylsulfonyl)pyrrolidin-3-yl)amino)-5-(trifluoromethyl)pyrimidin-4-yl)amino)phenyl)acrylamide] |
| E (provided a mass modification of ≧70%) | C=CC(=O)Nc1ccccc1Nc1nc(N[C@H]2CCN(C(=O)OC)C2)ncc1C(F)(F)F [Compound I-59, (S)-methyl 3-((4-((2-Acrylamidophenyl)amino)-5-(trifluoromethyl)pyrimidin-2-yl)amino)pyrrolidine-1-carboxylate] |
| E (provided a mass modification of ≧70%) | C=CC(=O)Nc1ccccc1Nc1nc(N[C@@H]2CCN(C(C)=O)C2)ncc1C(F)(F)F [Compound I-60, (R)—N-(2-((2-((1-Acetylpyrrolidin-3-yl)amino)-5-(trifluoromethyl)pyrimidin-4-yl)amino)phenyl)acrylamide] |
| E (provided a mass modification of ≧70%) | C=CC(=O)Nc1ccccc1Nc1nc(Nc2ccc(N3CCOCC3)cc2OC)ncc1C(F)(F)F [Compound I-65, N-(2-((2-((2-Methoxy-4-morpholinophenyl)amino)-5-(trifluoromethyl)pyrimidin-4-yl)amino)phenyl)acrylamide] |
| E (provided a mass modification of ≧70%) | C=CC(=O)Nc1ccccc1Nc1nc(Nc2cc(C(=O)NOC)ccc2OC)ncc1C(F)(F)F [Compound I-67, 3-((4-((2-Acrylamidophenyl)amino)-5-(trifluoromethyl)pyrimidin-2-yl)amino)-N,4-dimethoxybenzamide] |
| E (provided a mass modification of ≧70%) | C=CC(=O)Nc1ccccc1Nc1nc(Nc2cc(C(=O)NOC)ccc2C#N)ncc1C(F)(F)F [Compound I-72, 3-((4-((2-Acrylamidophenyl)amino)-5-(trifluoromethyl)pyrimidin-2-yl)amino)-4-cyano-N-methoxybenzamide] |
| E (provided a mass modification of ≧70%) | C=CC(=O)Nc1ccccc1Nc1nc(Nc2cc(C(=O)NOCCO)ccc2OC)ncc1C(F)(F)F [Compound I-74, 3-((4-((2-Acrylamidophenyl)amino)-5-(trifluoromethyl)pyrimidin-2-yl)amino)-N-(2-hydroxyethoxy)-4-methoxybenzamide] |
| E (provided a mass modification of ≧70%) | C=CC(=O)Nc1ccccc1Nc1nc(Nc2cc(C(=O)NOCCO)ccc2C#N)ncc1C(F)(F)F [Compound I-75, 3-((4-((2-Acrylamidophenyl)amino)-5-(trifluoromethyl)pyrimidin-2-yl)amino)-4-cyano-N-(2-hydroxyethoxy)benzamide] |
| E (provided a mass modification of ≧70%) | C=CC(=O)Nc1ccccc1Nc1nc(Nc2cc(C(=O)O)ccc2C)ncc1C(F)(F)F [Compound I-78, 3-((4-((2-Acrylamidophenyl)amino)-5-(trifluoromethyl)pyrimidin-2-yl)amino)-4-methylbenzoic acid] |
| E (provided a mass modification of ≧70%) | C=CC(=O)Nc1ccccc1Nc1nc(Nc2cc(C(=O)NC)c(F)cc2C)ncc1C(F)(F)F [Compound I-80, 5-((4-((2-Acrylamidophenyl)amino)-5-(trifluoromethyl)pyrimidin-2-yl)amino)-2-fluoro-N,4-dimethylbenzamide] |
| E (provided a mass modification of ≧70%) | C=CC(=O)Nc1ccccc1Nc1nc(Nc2cc(C(=O)NCCO)c(F)cc2C)ncc1C(F)(F)F [Compound I-81, 5-((4-((2-Acrylamidophenyl)amino)-5-(trifluoromethyl)pyrimidin-2-yl)amino)-2-fluoro-N-(2-hydroxyethyl)-4-methylbenzamide] |
| E (provided a mass modification of ≧70%) | C=CC(=O)Nc1ccccc1Nc1nc(NC(C)(C)C)ncc1C(F)(F)F [Compound I-82, N-(2-((2-(tert-Butylamino)-5-(trifluoromethyl)pyrimidin-4-yl)amino)phenyl)acrylamide] |

| Structure (SMILES) | ERK1 Mass Mod (%) |
| --- | --- |
| CC(=O)N1CCC[C@H](Nc2ncc(C(F)(F)F)c(Nc3ccccc3NC(=O)CCCl)n2)C1 [Compound I-21, (S)—N-(2-((2-((1-Acetylpiperidin-3-yl)amino)-5-(trifluoromethyl)pyrimidin-4-yl)amino)phenyl)-3-chloropropanamide] | F (provided a mass modification of 31-69%) |
| C=CC(=O)N[C@@H]1CCCC[C@H]1Nc1nc(N[C@H]2CCCN(C(=O)CO)C2)ncc1C(F)(F)F [Compound I-32, N-((1R,2R)-2-((2-(((S)-1-(2-hydroxyacetyl)piperidin-3-yl)amino)-5-(trifluoromethyl)pyrimidin-4-yl)amino)cyclohexyl)acrylamide] | F (key: E: provided a mass modification of ≧70%; F: provided a mass modification of 31-69%; G: proived a mass modification ≦30%) |
| C#CC(=O)N[C@@H]1CCCC[C@H]1Nc1nc(N[C@H]2CCCN(C(=O)CO)C2)ncc1C(F)(F)F [Compound I-34, N-((1R,2R)-2-((2-(((S)-1-(2-Hydroxyacetyl)piperidin-3-yl)amino)-5-(trifluoromethyl)pyrimidin-4-yl)amino)cyclohexyl)propiolamide] | F (provided a mass modification of 31-69%) |
| C=CC(=O)Nc1ccccc1Nc1nc(N[C@H]2CCN(C(C)=O)C2)ncc1C(F)(F)F [Compound I-56, (S)—N-(2-((2-((1-Acetylpyrrolidin-3-yl)amino)-5-(trifluoromethyl)pyrimidin-4-yl)amino)phenyl)acrylamide] | F (provided a mass modification of 31-69%) |
| C=CC(=O)Nc1ccccc1Nc1nc(N[C@H]2CCN(C(=O)CO)C2)ncc1C(F)(F)F [Compound I-57, (S)—N-(2-((2-((1-(2-Hydroxyacetyl)pyrrolidin-3-yl)amino)-5-(trifluoromethyl)pyrimidin-4-yl)amino)phenyl)acrylamide] | F (provided a mass modification of 31-69%) |
| C=CC(=O)Nc1ccccc1Nc1nc(Nc2cc(C(=O)NOCCO)ccc2C)ncc1C(F)(F)F [Compound I-73, 3-((4-((2-Acrylamidophenyl)amino)-5-(trifluoromethyl)pyrimidin-2-yl)amino)-N-(2-hydroxyethoxy)-4-methylbenzamide] | E (key: E: provided a mass modification of ≧70%; F: provided a mass modification of 31-69%; G: proived a mass modification ≦30%) |
